Results: paper PMC10498496, “Design and Synthesis of Poly(2,2′-Bipyridyl) Ligands for Induction of Cell Death in Cancer Cells: Control of Anticancer Activity by Complexation/Decomplexation with Biorelevant Metal Cations” (Inorganic Chemistry, 2023)
Like-named read-outs stand apart in the source and are kept apart here. Marks after values point to notes of the source that are not given here.

Legend:
[1] = UV/vis absorption titration, apparent stability constant with Al^3+; assay type: binding; conditions: ligand 30 μM, DMSO/30 mM HEPES pH 7.4, I = 0.1 (NaNO3) (7/3), 37 °C
Text: (§1) Although simple comparison of the stability of metal complexes is difficult due to the different units for 1:1 complexation (M^–1) and 1:2 complexation (M^–2), it is likely that the thermodynamic stability of Co^2+-(1)2 and Fe^2+-(1)2 complexes are similar to that of Zn^2+-1, Ni^2+-1, and Cu^2+-1 complexes.[40]
(§2) All reagents and solvents were purchased at the highest commercial quality and were used without further purification. Anhydrous DMF was obtained by distillation from calcium hydride. All aqueous solutions were prepared using deionized and distilled water. Melting points were measured using a Yanaco MP-J3 Micro Melting Point apparatus and are uncorrected. UV/vis absorption spectra were recorded on a JASCO V-630 spectrophotometer at 37 °C. […] The apparent stability constants of metal–ligand complexes (Ks) were calculated by using the Bind Works 1.0 software provided by CSC (Calorimetry Science Corp.), an interactive PC software for the analysis of Binding Isotherms on Isothermal Titration Calorimeters (ITCs), to which the change in absorption values obtained by the UV/vis absorption titrations are input.[62] IR spectra were measured with a PerkinElmer FT-IR spectrophotometer (Spectrum 100) at room temperature. ^1H (300 and 400 MHz) NMR spectra were recorded on a JEOL Always 300 spectrometer and a JEOL Always 400 spectrometer, respectively. […]

[2] = UV/vis absorption titration, apparent stability constant with Fe^2+; assay type: binding; conditions: ligand 30 μM, DMSO/30 mM HEPES pH 7.4 (7/3), 37 °C, approximate, assuming 1:1 complexation (1:2 complex)
Text: as §1, §2

[3] = UV/vis absorption titration, apparent stability constant with Cu^2+; assay type: binding; conditions: ligand 30 μM, DMSO/30 mM HEPES pH 7.4, I = 0.1 (NaNO3) (7/3), 37 °C, 1:1 complex
Description: (§3) All reagents and solvents were purchased at the highest commercial quality and were used without further purification. Anhydrous DMF was obtained by distillation from calcium hydride. All aqueous solutions were prepared using deionized and distilled water. Melting points were measured using a Yanaco MP-J3 Micro Melting Point apparatus and are uncorrected. UV/vis absorption spectra were recorded on a JASCO V-630 spectrophotometer at 37 °C. The UV/vis absorption titrations of 1 with metal ions were carried out by addition of 10 mM solutions of Zn(NO3)2, NiSO4, Co(NO3)2, Fe(NO3)2, and Al(NO3)3 in H2O and 10 mM solutions of Cu(NO3)2 in DMSO. The apparent stability constants of metal–ligand complexes (Ks) were calculated by using the Bind Works 1.0 software provided by CSC (Calorimetry Science Corp.), an interactive PC software for the analysis of Binding Isotherms on Isothermal Titration Calorimeters (ITCs), to which the change in absorption values obtained by the UV/vis absorption titrations are input.[62] IR spectra were measured with a PerkinElmer FT-IR spectrophotometer (Spectrum 100) at room temperature. ^1H (300 and 400 MHz) NMR spectra were recorded on a JEOL Always 300 spectrometer and a JEOL Always 400 spectrometer, respectively. Luminescence imaging studies were performed using a fluorescent microscope (Biorevo, BZ-9000, Keyence). […]

[4] = UV/vis absorption titration, apparent stability constant with Co^2+; assay type: binding; conditions: ligand 30 μM, DMSO/30 mM HEPES pH 7.4 (7/3), 37 °C, approximate, assuming 1:1 complexation (1:2 complex)
Text: as §1, §2

[5] = UV/vis absorption titration, apparent stability constant with Zn^2+; assay type: binding; conditions: 37 °C, 1:1 complex
Description: as §3

Jurkat cells = assay: MTT assay of Jurkat cells, effect of metal ions and incubation time on cytotoxicity of ligands; assay type: cell-based, human; conditions: Homo sapiens, Jurkat, no metal
Description: Next, we examined the effect of complexation of 1, 2, BAPTA, and BAPTA-AM with metal ions such as Cu(NO3)2, Zn(NO3)2, FeSO4, Co(NO3)2, and NiSO4 on their cytotoxicity against Jurkat cells. Mixture of ligands and metal ions were incubated for 1 h at 37 °C, and added to Jurkat cells for incubation for 12, 24, and 48 h at [ligand] = 0.78–25 μM and [M^2+] = 1.71–37.5 μM ([ligand]: [M^2+] = 1:1.5). After that, MTT assays were carried out, as shown in Figure S3 of the Supporting Information.
IMR-90 cells in DMEM medium with 10% FBS (1.5 × 10^5 cells/mL) were seeded in to 96 well plates and incubated for 24 h at 37 °C, MTT assays with poly(bpy) ligands and their metal complexes (0–100 μM), cisplatin (0–100 μM), and actinomycin D (0–10 μM) were performed following the same procedure described above. These experiments were carried out at least three times. • (b) MTT assay in the presence of a caspase inhibitor. Jurkat cells were pre-treated with Z-VAD-fmk (15 μM) for 3 h, a general caspases inhibitor, followed by the treatment with 1 (1 μM), BABTA-AM (12.5 μM) and cisplatin (50 μM), respectively, for 24 h, and then MTT assay was carried out as described above. • (c) For evaluation of the effect of metal ions on the cytotoxicity of 1, 2, BAPTA, and BAPTA-AM, these ligands were incubated with metal ions such as Cu(NO3)2, Zn(NO3)2, FeSO4, Co(NO3)2, and NiSO4 for 1 h, respectively, and added to Jurkat cells. The whole mixtures were incubated for 12, 24, and 48 h at [ligand] = 0.78–25 μM and at [M^2+] = 1.71–37.5 μM ([ligand]/[M^2+] = 1:1.5). The MTT assays were conducted as described above.

c1ccc(-c2ccc(OCc3cc(COc4ccc(-c5ccccn5)nc4)cc(COc4ccc(-c5ccccn5)nc4)c3)cn2)nc1 [compound 1, 1,3,5-Tris(([2,2′-Bipyridin]-5-yloxy)methyl)benzene]
apparent stability constant log Ks with Al(NO3)3 [1]: <1 | apparent stability constant log Ks with Fe(NO3)2 [2]: >5.5 ^b (1:2 complex) | apparent stability constant log Ks with Cu(NO3)2 [3]: 7.29 ± 0.02 (1:1 complex) | apparent stability constant log Ks with Co(NO3)2 [4]: >6 ^b (1:2 complex) | Kd ([5]; DMSO/30 mM HEPES pH 7.4 (7/3), read-out: dissociation constant Kd (= 1/Ks) of Zn^2+ complex): 280 ± 10 nM | apparent stability constant log Ks with Zn(NO3)2 ([5]; ligand 30 μM, DMSO/30 mM HEPES pH 7.4, I = 0.1 (NaNO3) (7/3)): 6.56 ± 0.02 (1:1 complex) | EC50 (Jurkat cells; incubation 12 h (Figure 9), read-out: EC50 against Jurkat cells, metal-free ligand): ~9000 nM | EC50 (Jurkat cells; incubation 24 h (Figure 9b), read-out: EC50 against Jurkat cells, ligand alone): 137 nM | EC50 (Jurkat cells; incubation 48 h (Figure 9, S4), read-out: EC50 against Jurkat cells, metal-free ligand): ~60 nM
